For test [1], the target named is recombinant PARP1 (AA662-1014) protein (Homo sapiens (Human), UniProt P09874). As to the kind of experiment: Tracer displacement fluorescence polarization assay. The following applies: displacement of AlexaFluor488 tracer from NAD+-binding site, PARP1 25 nM. How it is done:
Example B. Tracer Displacement Fluorescence Polarization Assays
Displacement of AlexaFlour488 marked tracer from the NAD+-binding site of recombinant PARP1 (AA662-1014) protein (OriGene, Cat #: AR09368PU-L) was measured in vitro using Fluorescence polarization assay. The reaction was carried out in assay buffer (50 mM TRIS-HCl pH 7.4-7.8, 150 mM NaCl, 10 mM MgCl2, 0.001% Triton-X). 2×PARP1 (final concentration 25 nM) was diluted in 1× Assay buffer and 10 μl of the solution per well was added into 384-well Black Non-Treated Reaction plate (Corning, Cat #4511). Plates were centrifuged for 1 min at 200 g. The compounds were prepared in a 384-well Diamond Well Plate (Axygen, Cat #P-384-120SQ-C-S) as 400× solutions in DMSO and were transferred into Reaction plate using the Biomek FX liquid handling system with intermediate dilution down to 10× working solution in assay buffer in a separate 384-well Diamond Well Plate (Axygen, Cat #P-384-120SQ-C-S) (2 μl per well). Plates were centrifuged for 1 min at 200 g and incubated for 15 min at room temperature in the dark. Then 8 μL per well of 2.5× Tracer AlexaFluor488 (final concentration 1 nM) diluted in 1× Assay buffer was added into Reaction plate. 1× Assay buffer was used to make blank samples for instrument calculations. Plates were incubated for 30 minutes at room temperature in the dark. Fluorescence polarization was measured using Microplate Reader (BMG, ClarioStar Plus). The % tracer displacement was used to calculate the IC50 values. The IC50 values are shown in Table A, wherein “A” corresponds to IC50<0.01 μM, “B” corresponds to 0.01 μM≤IC50<0.1 μM, “C” 0.1 μM≤IC50<[…], and “D” corresponds to […].
Background: Fluorescence polarisation rises when a labelled molecule tumbles more slowly, as on binding a larger partner.

Test [2] deals with recombinant Wee1 protein (Homo sapiens (Human), UniProt P30291). As to the kind of experiment: Wee1 enzymatic activity inhibition, ADP-Glo luminescence assay. The following applies: recombinant Wee1, PolyE4Y1 substrate, 1 h room temperature. The class given is biochemical. The protocol:
Example A. Primary Assay Used to Determine Potency of Wee1 Enzymatic Activity Inhibition
Compound activity was determined using recombinant Wee1 protein (BPS, Cat #40412) and PolyE4Y1 Substrate (Poly(Glu,Tyr) sodium salt, Sigma, Cat #P0275-25MG) in an in vitro enzymatic reaction. The enzymatic assay used to determine activity was a Luminescence assay using a Microplate Reader (BMG, ClarioStar Plus). The enzymatic reaction was carried out in assay buffer (40 mM TRIS-HCl pH 7.4-7.6, 20 mM MgCl2, 0.05 mM DTT, 0.1 mg/ml BSA, 5 mM MnCl2). The compounds were dispensed on a 384 well Diamond Well Plate (Axigen, Cat #P-384-120SQ-C-S) using the Biomek FX liquid handling system at 100× solutions of compounds in DMSO. 2×Wee1-PolyE4Y1 mix (final concentration 0.85 ng/μl of Wee1 and 0.2 μg/μl of PolyE4Y1) was prepared in 1× Assay buffer and 5.5 μl of mixture per well was added into 384w white Reaction plate with NBS (Corning, Cat #4513). 5.5 μl of PolyE4Y1 substrate w/o Wee1 in 1× buffer was used for negative control. Plates were centrifuged for 1 min at 100 g. Next step the Compounds were added to Reaction plate using Biomek station via following steps: 1 μl of 100× compounds (in DMSO) were mixed thoroughly with 49 μl of 2×10 μM ATP in Assay Buffer, then 5.5 μl of this mixture was added to Reaction plate with 5.5 μl of Wee1-PolyE4Y1 mix. Plates were centrifuged for 1 min at 100 g and incubated for 1 h at room temperature. Next 3 μL of ADP-Glo reagent (Promega, ADP-Glo™ Kinase Assay, Cat #V9102) per well was added. Plates were incubated for 30 minutes at room temperature. Then 6 μL of Kinase detection reagent (Promega, ADP-Glo™ Kinase Assay, Cat #V9102) per well was added and the Luminescence was measured using Microplate Reader. The % inhibition was then used to calculate the IC50 values. The IC50 values are shown in Table A, wherein “A” corresponds to IC50<0.01 μM, “B” corresponds to 0.01 μM≤IC50<0.1 μM, “C” 0.1 μM≤IC50<1 μM, and “D” corresponds to […].

Structures are written as SMILES. A value given as a limit tells only on which side of the number the result lay.

Chain of recombinant PARP1 (AA662-1014) protein (P09874 662-1014): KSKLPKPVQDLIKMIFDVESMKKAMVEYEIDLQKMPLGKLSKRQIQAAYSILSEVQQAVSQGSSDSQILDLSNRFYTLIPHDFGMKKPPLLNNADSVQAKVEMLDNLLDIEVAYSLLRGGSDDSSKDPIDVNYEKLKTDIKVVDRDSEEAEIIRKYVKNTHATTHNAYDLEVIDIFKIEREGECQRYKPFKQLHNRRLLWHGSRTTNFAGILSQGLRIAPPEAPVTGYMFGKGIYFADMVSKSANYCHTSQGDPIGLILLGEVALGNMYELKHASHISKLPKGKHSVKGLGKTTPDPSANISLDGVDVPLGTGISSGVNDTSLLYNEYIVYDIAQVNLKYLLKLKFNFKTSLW
Chain of recombinant Wee1 protein (P30291 whole entry): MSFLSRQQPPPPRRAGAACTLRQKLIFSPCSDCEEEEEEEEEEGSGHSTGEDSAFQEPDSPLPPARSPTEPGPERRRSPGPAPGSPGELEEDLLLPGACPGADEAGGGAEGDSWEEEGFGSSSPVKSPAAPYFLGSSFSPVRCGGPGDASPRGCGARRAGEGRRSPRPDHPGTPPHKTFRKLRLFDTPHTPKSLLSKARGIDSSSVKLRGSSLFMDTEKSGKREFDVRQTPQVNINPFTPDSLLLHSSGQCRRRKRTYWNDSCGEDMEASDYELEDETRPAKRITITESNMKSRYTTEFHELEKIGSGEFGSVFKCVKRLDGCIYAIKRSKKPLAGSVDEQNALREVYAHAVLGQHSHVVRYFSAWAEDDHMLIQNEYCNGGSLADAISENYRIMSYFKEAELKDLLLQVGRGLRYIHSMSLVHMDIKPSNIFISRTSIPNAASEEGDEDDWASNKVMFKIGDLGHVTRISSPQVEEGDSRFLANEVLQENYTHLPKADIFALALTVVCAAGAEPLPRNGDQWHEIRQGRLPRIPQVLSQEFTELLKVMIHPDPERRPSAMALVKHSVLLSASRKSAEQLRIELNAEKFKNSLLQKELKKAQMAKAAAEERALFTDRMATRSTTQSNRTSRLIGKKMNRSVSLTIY

`Cn1c(=O)c2cnc(Nc3ccc(N4CCC(c5nc6cccc(C(N)=O)c6[nH]5)CC4)cc3)nc2n1-c1ccccn1` [Compound 95, 2-[1-[4-[[2-methyl-3-oxo-1-(2-pyridyl)pyrazolo[3,4-d]pyrimidin-6-yl]amino]phenyl]-4-piperidyl]-3H-benzimidazole-4-carboxamide]: the EC50 in test [1] and in test [2] was 10 to 100 nM throughout.
`C=CCn1c(=O)c2cnc(N3CCN(Cc4ccc(-c5[nH]c6cc(F)cc7c6c5CCNC7=O)cc4)CC3)nc2n1-c1cccc(C(C)(C)O)n1` [Compound 44, 2-{4-[(4-{2-Allyl-1-[6-(1-hydroxy-1-methylethyl)pyridin-2-yl]-3-oxo-2,3-dihydro-1H-pyrazolo[3,4-d]pyrimidin-6-yl}piperazin-1-yl)methyl]phenyl}-8-fluoro-1,3,4,5-tetrahydro-6H-azepino[5,4,3-cd]indol-6-one]: the EC50 (commonly the concentration that produces a half-maximal response) in test [1] is under 10 nM; in test [2], at least 1 nM.
Turning to `Cn1c2nc(Nc3ccc(N4CCC(n5cc6cccc(C(N)=O)c6n5)CC4)cc3)ncc2c(=O)n1-c1ccccn1` [Compound 86], the 50% effective concentration (EC50) in test [1] was 10 to 100 nM; in test [2], 100 to 1000 nM.
In the same order, the values of `Cn1c2nc(Nc3ccc(N4CCCC(c5nc6cccc(C(N)=O)c6[nH]5)C4)cc3)ncc2c(=O)n1-c1ccccn1` (stereo not drawn) [Compound 97] are 10 to 100 nM and 100 to 1000 nM.
For `COCCn1c(=O)c2cnc(Nc3ccc(N4CCN(Cc5ccc(-c6[nH]c7cc(F)cc8c7c6CCNC8=O)cc5)CC4)cc3)nc2n1-c1ccccn1` [Compound 38, 8-Fluoro-2-(4-{[4-(4-{[2-(2-methoxyethyl)-3-oxo-1-pyridin-2-yl-2,3-dihydro-1H-pyrazolo[3,4-d]pyrimidin-6-yl]amino}phenyl)piperazin-1-yl]methyl}phenyl)-1,3,4,5-tetrahydro-6H-azepino[5,4,3-cd]indol-6-one], the EC50 fell in the range of 10 to 100 nM in test [1] and 100 to 1000 nM in test [2].
For `COCCn1c(=O)c2cnc(Nc3ccc(N4CCN(C(=O)c5cc(Cc6n[nH]c(=O)c7ccccc67)ccc5F)CC4)cc3)nc2n1-c1ccccn1` [Compound 9, 4-(4-Fluoro-3-{[4-(4-{[2-(2-methoxyethyl)-3-oxo-1-pyridin-2-yl-2,3-dihydro-1H-pyrazolo[3,4-d]pyrimidin-6-yl]amino}phenyl)piperazin-1-yl]carbonyl}benzyl)phthalazin-1(2H)-one], the half-maximal effective concentration (EC50) in test [1] was under 10 nM; in test [2], 10 to 100 nM.
As for `C=CCn1c(=O)c2cnc(Nc3ccc(N4CCN(Cc5cc(Cc6n[nH]c(=O)c7ccccc67)ccc5F)CC4)cc3)nc2n1-c1cccc(C(C)(C)O)n1` [Compound 14, 4-[3-({4-[4-({2-Allyl-1-[6-(1-hydroxy-1-methylethyl)pyridin-2-yl]-3-oxo-2,3-dihydro-1H-pyrazolo[3,4-d]pyrimidin-6-yl}amino)phenyl]piperazin-1-yl}methyl)-4-fluorobenzyl]phthalazin-1(2H)-one], the EC50 in test [1] is 100 to 1000 nM; in test [2], 10 to 100 nM.
In the same order, the values of `O=C(c1cc(Cc2n[nH]c(=O)c3ccccc23)ccc1F)N1CCN(c2ccc(Nc3ncc4c(=O)n(CCO)n(-c5ccccn5)c4n3)cc2)CC1` [Compound 15, 4-(4-Fluoro-3-{[4-(4-{[2-(2-hydroxyethyl)-3-oxo-1-pyridin-2-yl-2,3-dihydro-1H-pyrazolo[3,4-d]pyrimidin-6-yl]amino}phenyl)piperazin-1-yl]carbonyl}benzyl)phthalazin-1(2H)-one] are under 10 nM and 100 to 1000 nM.
`Cn1c(=O)c2cnc(Nc3ccc(N4CCN(Cc5ccc(-c6[nH]c7cc(F)cc8c7c6CCNC8=O)cc5)CC4)cc3)nc2n1-c1cccc(C(C)(C)O)n1` [Compound 40, 8-Fluoro-2-[4-({4-[4-({1-[6-(1-hydroxy-1-methylethyl)pyridin-2-yl]-2-methyl-3-oxo-2,3-dihydro-1H-pyrazolo[3,4-d]pyrimidin-6-yl}amino)phenyl]piperazin-1-yl}methyl)phenyl]-1,3,4,5-tetrahydro-6H-azepino[5,4,3-cd]indol-6-one]: the half-maximal effective concentration (EC50) in test [1] and in test [2] was 10 to 100 nM in each case.

(Values after US20250270212A1, “CHIMERIC COMPOUNDS USEFUL IN TREATING DISEASES” (Padarn Therapeutics, Inc., priority 2021, published 2025).)
